Reference: ChEMBL document CHEMBL1146285, “Trimethylsilylpyrazoles as novel inhibitors of p38 MAP kinase: a new use of silicon bioisosteres in medicinal chemistry” (Bioorg Med Chem Lett, 2007)

What was measured:
[1] = Distribution coefficient, log D at pH 6.5; type: physicochemical; conditions: octanol/water
[2] = Metabolic stability in human liver microsomes at 1 uM after 40 mins; type: ADME, Microsome; conditions: read-out: Stability
[3] = Partition coefficient, log P of the compound; type: physicochemical; conditions: octanol/water
[4] = Distribution coefficient, log D at pH 6.0; type: physicochemical; conditions: octanol/water
Mus musculus [5] = assay: Suppression of lipopolysaccharide-induced TNFalpha release in mouse at 10 mg/kg, po after 120 mins; type: functional
Mus musculus [6] = assay: Suppression of lipopolysaccharide-induced TNFalpha release in mouse at 10 mg/kg, po after 30 mins; type: functional
[7] = Distribution coefficient, log D at pH 7.4; type: physicochemical; conditions: octanol/water

Question: With Cc1ccc(-n2nc(C(C)(C)C)cc2NC(=O)Nc2ccc(OCCN3CCOCC3)c3ccccc23)cc1 [DORAMAPIMOD] as the molecule, how does the logD [1] read?
Answer: 4.9

Question: And the remaining at 40 min, 1 µM [2]?
Answer: 79%

Question: What about the logP [3] of the same molecule?
Answer: 5.2

Question: What about the logD [4] of the same molecule?
Answer: 4.6

Question: And the Activity (Mus musculus [5])?
Answer: -40%

Question: What about the Activity (Mus musculus [6]) of the same molecule?
Answer: -41%

Question: And the logD [7]?
Answer: 5.1
